Our source for the CC50 and EC50 values is patent publication US11708369B2, “Heteroaromatic compounds having activity against RSV” (Janssen Sciences Ireland Unlimited Company, priority 2018, dated 2023).

Data set [1] is described as follows: in vitro. As to conditions: human.
Protocol: The wells contain 0.05% DMSO per volume. Cells were incubated at 37° C. in a 5% CO2 atmosphere. […] In parallel, compounds were incubated for three days in a set of white 384-well microtiter plates (Corning) and the cytotoxicity of compounds in HeLa cells was determined by measuring the ATP content of the cells using the ATPlite kit (Perkin Elmer, Zaventem, Belgium) according to the manufacturer's instructions. The CC50 was defined as the 50% concentration for cytotoxicity.
Data set [2] relates to rgRSV224 virus. Description: Antiviral activity: rgRSV224 (GFP) replication in HeLa cells. As to conditions: human respiratory syncytial virus, 72 h, read-out: RSV HELA EC50.
Protocol: Black 384-well clear-bottom microtiter plates (Corning, Amsterdam, The Netherlands) were filled via acoustic drop ejection using the echo liquid handler (Labcyte, Sunnyvale, Calif.). 200 nL of compound stock solutions (100% DMSO) were transferred to the assay plates. 9 serial 4-fold dilutions of compound were made, creating per quadrant the same compound concentration. The assay was initiated by adding 10 μL of culture medium to each well (RPMI medium without phenol red, 10% FBS-heat inactivated, 0.04% gentamycin (50 mg/mL). All addition steps are done by using a multidrop dispenser (Thermo Scientific, Erembodegem, Belgium). Next, rgRSV224 virus (MOI=1) diluted in culture medium was added to the plates. rgRSV224 virus is an engineered virus that includes an additional GFP gene (Hallak L K, Spillmann D, Collins P L, Peeples M E. Glycosaminoglycan sulfation requirements for respiratory syncytial virus infection; Journal of virology (2000), 74(22), 10508-13) and was in-licensed from the NIH (Bethesda, Md., USA). Finally, 20 μL of a HeLa cell suspension (3,000 cells/well) were plated. Medium, virus- and mock-infected controls were included in each test. The wells contain 0.05% DMSO per volume. Cells were incubated at 37° C. in a 5% CO2 atmosphere. Three days post-virus exposure, viral replication was quantified by measuring GFP expression in the cells by an in house developed MSM laser microscope (Tibotec, Beerse, Belgium). The EC50 was defined as the 50% inhibitory concentration for GFP expression. In parallel, compounds were incubated for three days in a set of white 384-well microtiter plates (Corning) and the cytotoxicity of compounds in HeLa cells was determined by measuring the ATP content of the cells using the ATPlite kit (Perkin Elmer, Zaventem, Belgium) according to the manufacturer's instructions. The CC50 was defined as the 50% concentration for cytotoxicity.

As for `C[C@@H]1c2ccccc2CCN1C(=O)c1cc(C2CC2)n2cc(-c3ccc(N4CC[C@H](C(N)=O)C4)cc3F)nc2n1` [Compound 28, (3S)-1-(4-{5-Cyclopropyl-7-[(1R)-1-methyl-1,2,3,4-tetrahydroisoquinoline-2-carbonyl]imidazo[1,2-a]pyrimidin-2-yl}-3-fluorophenyl)pyrrolidine-3-carboxamide], the CC50 at 3 days in data set [1] was 22.3 µM. Further, the EC50 in data set [2] turned out to be 0.112 µM.

As a reminder, the EC50 is the concentration that produces a half-maximal response.
